Test results published in patent US7834179B2, “Spiroindolinone derivatives” (Hoffmann-La Roche Inc., priority 2007, dated 2010).

target: interaction between p53 and MDM2 proteins (Homo sapiens, UniProt Q00987); test: HTRF assay of inhibition of p53-MDM2 interaction (GST-MDM2 / biotinylated p53 peptide); format: binding; settings: recombinant GST-tagged MDM2 and biotinylated p53 peptide, 37° C. for 1 h
Procedure: The ability of the compounds to inhibit the interaction between p53 and MDM2 proteins was measured by an HTRF (homogeneous time-resolved fluorescence) assay in which recombinant GST-tagged MDM2 binds to a peptide that resembles the MDM2-interacting region of p53 (Lane et al.). Binding of GST-MDM2 protein and p53-peptide (biotinylated on its N-terminal end) is registered by the FRET (fluorescence resonance energy transfer) between Europium (Eu)-labeled anti-GST antibody and streptavidin-conjugated Allophycocyanin (APC).
Test is performed in black flat-bottom 384-well plates (Costar) in a total volume of 40 uL containing: 90 nM biotinylate peptide, 160 ng/ml GST-MDM2, 20 nM streptavidin-APC (PerkinElmerWallac), […] Eu-labeled anti-GST-antibody (PerkinElmerWallac), 0.2% bovine serum albumin (BSA), 1 mM dithiothreitol (DTT) and 20 mM Tris-borate seine (TBS) buffer as follows: Add 10 uL of GST-MDM2 (640 ng/ml working solution) in reaction buffer to each well. Add 10 uL diluted compounds (1:5 dilution in reaction buffer) to each well, mix by shaking. Add 20 uL biotinylated p53 peptide (180 nM working solution) in reaction buffer to
each well and mix on shaker. Incubate at 37° C. for 1 h. Add 20 uL streptavidin-APC and Eu-anti-GST antibody mixture (6 nM Eu-anti-GST and 60 nM streptavidin-APC working solutions), in TBS buffer with 0.2% BSA, shake at room temperature for 30 minutes and read using a TRF-capable plate reader at 665 and 615 nm (Victor 5, Perkin ElmerWallac). If not specified, the reagents were purchased from Sigma, Chemical Co.

Sequence of interaction between p53 and MDM2 proteins (Q00987 whole entry): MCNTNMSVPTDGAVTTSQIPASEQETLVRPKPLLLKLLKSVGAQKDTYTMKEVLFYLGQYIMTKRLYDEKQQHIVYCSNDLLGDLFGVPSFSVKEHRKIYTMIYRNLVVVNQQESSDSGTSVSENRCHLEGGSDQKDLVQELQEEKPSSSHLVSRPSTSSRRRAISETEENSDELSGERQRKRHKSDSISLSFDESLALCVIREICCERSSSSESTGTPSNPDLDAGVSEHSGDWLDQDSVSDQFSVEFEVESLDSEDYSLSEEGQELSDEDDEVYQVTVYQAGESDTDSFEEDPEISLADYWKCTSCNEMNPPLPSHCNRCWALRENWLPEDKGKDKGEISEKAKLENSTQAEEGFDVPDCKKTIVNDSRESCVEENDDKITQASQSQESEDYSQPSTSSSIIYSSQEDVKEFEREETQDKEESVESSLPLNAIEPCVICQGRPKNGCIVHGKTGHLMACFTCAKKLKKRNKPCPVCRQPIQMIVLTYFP

| SMILES | IC50 [nM] |
| --- | --- |
| C=C(CC)[C@H]1N2CC(=O)N(CCOC(C)=O)N=C2C[C@@H](c2cccc(Cl)c2)[C@]12C(=O)Nc1cc(Cl)ccc12 (racemic) [Example 7b, (6′R, 3R, 8′S)-2′-(2-acetoxyethyl)-6-chloro-8′-(3-chlorophenyl)-6′-(1-methylene-propyl)-6′,7′,8′,9′-tetrahydro spiro[3H-indole-3,7′-(2H-pyrido[2,1-c][1,2,4]triazine)]-2,3′(1H)-dione] | 890 |
| C=C(CC)[C@H]1N2CC(=O)N(CC(=O)NCCO)N=C2C[C@@H](c2cccc(Cl)c2)[C@]12C(=O)Nc1cc(Cl)ccc12 [Example 11c, (6′R, 3R, 8′S)-6-chloro-8′-(3-chlorophenyl)-2′-[(2-hydroxyethylamino)carbonyl-methyl]-6′-(1-methylene-propyl)-6′,7′,8′,9-tetrahydro spiro[3H-indole-3,7′-(2H-pyrido[2,1-c][1,2,4]triazine)]-2,3′(1H)-dione] | 293 |
| C=C(CC)[C@H]1N2CC(=O)N(CCCN(C)C)N=C2C[C@@H](c2cccc(Cl)c2)[C@]12C(=O)Nc1cc(Cl)ccc12 (racemic) [Example 5b, (6′R, 3R, 8′S)-6-chloro-8′-(3-chlorophenyl)-2′-(3-dimethylaminopropyl)-6′-(1-methylene-propyl)-6′,7′,8′,9′-tetrahydro spiro[3H-indole-3,7′-(2H-pyrido[2,1-c][1,2,4]triazine)]-2,3′(1H)-dione] | 100 |
| C=CCOc1ccc(I)cc1[C@H]1N2CC(=O)N(C)N=C2C[C@@H](c2cccc(Cl)c2)[C@]12C(=O)Nc1cc(Cl)ccc12 (racemic) [Example 18g, (6′R, 3R, 8′S)-6′-(2-allyloxy-5-iodo-phenyl)-6-chloro-8′-(3-chlorophenyl)-2′-methyl-6′,7′,8′,9′-tetrahydro spiro[3H-indole-3,7′-(2H-pyrido[2,1-c][1,2,4]triazine)]-2,3′(1H)-dione] | 272 |
| Cc1ccc(F)cc1[C@H]1N2CC(=O)N(C)N=C2C[C@@H](c2cccc(Cl)c2)[C@]12C(=O)Nc1cc(Cl)ccc12 (racemic) [Example 1i, (6′R, 3R, 8′S)-6-chloro-8′-(3-chlorophenyl)-6′-(5-fluoro-2-methylphenyl)-2′-methyl-6′,7′,8′,9′-tetrahydro spiro[3H-indole-3,7′-(2H-pyrido[2,1-c][1,2,4]triazine)]-2,3′(1H)-dione] | 191 |
